Assay results taken from PubChem BioAssay AID330 (DTP/NCI, 2004).
Values joined by “and” are separate entries in the source; they are usually repeats but may differ in a detail not shown here. Identical values can stand only once. Toxic doses and inconclusive results are not listed. Rule for the calls: active = survival T/C of 150% or more; inactive = T/C below 125% in these data.

Tested on: P388 leukemia ip, CD2F1 mice, survival T/C
Assay: NCI In Vivo Anticancer Drug Screen. Data for tumor model P388 Leukemia (intraperitoneal) in CD2F1 (CDF1) mice
Conditions: endpoint: median survival time, higher = longer survival
Summary of the method: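 Mice carrying the transplanted tumor received test compound or vehicle. Survival was recorded in each group, and the value is the treated-group measurement divided by that of the vehicle-treated control group.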

[1] = dose: 60.0 mg/kg/injection, schedule: Q01DX005 (ip), vehicle: saline with Tween-80
[2] = dose: 120.0 mg/kg/injection, schedule: Q01DX005 (ip), vehicle: saline with Tween-80
[3] = dose: 240.0 mg/kg/injection, schedule: Q01DX005 (ip), vehicle: saline with Tween-80
[4] = dose: 50.0 mg/kg/injection, schedule: Q01DX009 (ip), vehicle: Klucel (hydroxypropylcellulose) (HPC)
[5] = dose: 100.0 mg/kg/injection, schedule: Q01DX009 (ip), vehicle: Klucel (hydroxypropylcellulose) (HPC)
[6] = dose: 25.0 mg/kg/injection, schedule: Q01DX009 (ip), vehicle: saline with Tween-80
[7] = dose: 50.0 mg/kg/injection, schedule: Q01DX009 (ip), vehicle: saline with Tween-80
[8] = dose: 100.0 mg/kg/injection, schedule: Q04DX003 (ip), vehicle: saline with Tween-80
[9] = dose: 200.0 mg/kg/injection, schedule: Q04DX003 (ip), vehicle: saline with Tween-80
[10] = dose: 100.0 mg/kg/injection, schedule: Q04DX003 (ip), vehicle: saline
[11] = dose: 200.0 mg/kg/injection, schedule: Q04DX003 (ip), vehicle: saline
[12] = dose: 400.0 mg/kg/injection, schedule: Q04DX003 (ip), vehicle: saline
[13] = dose: 100.0 mg/kg/injection, schedule: Q01DX009 (ip), vehicle: saline with Tween-80
[14] = dose: 200.0 mg/kg/injection, schedule: Q01DX009 (ip), vehicle: saline with Tween-80
[15] = dose: 50.0 mg/kg/injection, schedule: Q01DX009 (ip), vehicle: saline
[16] = dose: 100.0 mg/kg/injection, schedule: Q01DX009 (ip), vehicle: saline
[17] = dose: 200.0 mg/kg/injection, schedule: Q01DX009 (ip), vehicle: saline
[18] = dose: 30.0 mg/kg/injection, schedule: Q01DX005 (ip), vehicle: Klucel (hydroxypropylcellulose) (HPC)

Measured: T/C

COc1c2c(c(N3CCCC3)c3c1C(=O)c1ccccc1C3=O)C(=O)CCC2
inactive: dose: 100.0 mg/kg/injection, schedule: Q01DX001 (ip), vehicle: saline with Tween-80 100 % of control | dose: 200.0 mg/kg/injection, schedule: Q01DX001 (ip), vehicle: saline with Tween-80 105 % of control | dose: 400.0 mg/kg/injection, schedule: Q01DX001 (ip), vehicle: saline with Tween-80 94 % of control

COC1=CCC(Cc2ccc[nH]2)=CC1
inactive: dose: 100.0 mg/kg/injection, schedule: Q01DX001 (ip), vehicle: distilled water + Tween-80 + alcohol 98 % of control | dose: 200.0 mg/kg/injection, schedule: Q01DX001 (ip), vehicle: distilled water + Tween-80 + alcohol 105 % of control | dose: 400.0 mg/kg/injection, schedule: Q01DX001 (ip), vehicle: distilled water + Tween-80 + alcohol 107 % of control

COc1ccc(C2Cc3cc(OC)c(OC)cc3C(c3ccccc3)N2)cc1OC (stereo unspecified)
inactive: [1] 86 % of control | [2] 88 % of control | [3] 89 % of control

CCOCCOCCOC(C)Oc1ccc(Br)cc1 (stereo unspecified)
inactive: [1] 104 % of control | [2] 100 % of control | [3] 104 % of control

CCOC(=O)C1CC(=O)SC1=O (stereo unspecified)
inactive: dose: 25.0 mg/kg/injection, schedule: Q04DX002 (ip), vehicle: saline with Tween-80 101 % of control | dose: 50.0 mg/kg/injection, schedule: Q04DX002 (ip), vehicle: saline with Tween-80 100 % of control | dose: 100.0 mg/kg/injection, schedule: Q04DX002 (ip), vehicle: saline with Tween-80 99 % of control

O=C1C2C3C=CC(C3)C2C(=O)N1CNc1ccc2nc(SC3CCCC3)sc2c1 (stereo unspecified)
inactive: [4] 91 % of control | [5] 88 % of control

CC(C)COP(=O)(OCC(C)C)OCC(C)C
inactive: [6] 100 % of control | [7] 109 % of control | dose: 50.0 mg/kg/injection, schedule: Q04DX003 (ip), vehicle: saline with Tween-80 100 % of control | [8] 90 % of control | [9] 95 % of control

C=CC[P+](CC)(c1ccccc1)c1ccccc1
inactive: dose: 0.78 mg/kg/injection, schedule: Q01DX009 (ip), vehicle: saline 95 % of control | dose: 1.56 mg/kg/injection, schedule: Q01DX009 (ip), vehicle: saline 88 % of control | dose: 3.13 mg/kg/injection, schedule: Q01DX009 (ip), vehicle: saline 93 % of control

O=C1c2cccc3c([N+](=O)[O-])ccc(c23)C(=O)N1NCCO
inactive: dose: 12.5 mg/kg/injection, schedule: Q01DX005 (ip), vehicle: saline with Tween-80 108 % of control | dose: 25.0 mg/kg/injection, schedule: Q01DX005 (ip), vehicle: saline with Tween-80 116 % of control | dose: 50.0 mg/kg/injection, schedule: Q01DX005 (ip), vehicle: saline with Tween-80 111 % of control and 116 % of control | dose: 100.0 mg/kg/injection, schedule: Q01DX005 (ip), vehicle: saline with Tween-80 114 % of control

Nc1ccc(C(=O)Oc2ccc([N+](=O)[O-])cc2)cc1
inactive: [8] 95 % of control | [9] 90 % of control

CCOc1cc(C)c(C(CC(=O)O)CC(=O)N(CCCl)CCCl)cc1C(C)C (stereo unspecified)
inactive: [10] 107 % of control | [11] 100 % of control | [12] 108 % of control

c1ccc(-c2nnc3ccccc3n2)cc1
inactive: [6] 99 % of control | [7] 98 % of control | [13] 98 % of control | [14] 93 % of control

COP(=S)(OC)Oc1cc(Cl)c(Cl)cc1Cl
inactive: dose: 50.0 mg/kg/injection, schedule: Q04DX003 (ip), vehicle: saline 100 % of control | [10] 102 % of control | [11] 103 % of control | [12] 102 % of control

Fc1c(F)c(F)c(CCc2c(F)c(F)c(F)c(F)c2F)c(F)c1F
inactive: [1] 99 % of control | [2] 89 % of control | [3] 88 % of control

CC(N)=NC(C)C
inactive: [15] 101 % of control | [16] 101 % of control | [17] 99 % of control

CCCCC1(C)OC(C)CC(C)O1 (stereo unspecified)
inactive: dose: 60.0 mg/kg/injection, schedule: Q01DX005 (ip), vehicle: saline 97 % of control | dose: 120.0 mg/kg/injection, schedule: Q01DX005 (ip), vehicle: saline 99 % of control | dose: 240.0 mg/kg/injection, schedule: Q01DX005 (ip), vehicle: saline 108 % of control

Cc1ccc(C)n1-c1ccsc1C(=O)NNC(=O)CCl
inactive: dose: 7.5 mg/kg/injection, schedule: Q01DX005 (ip), vehicle: Klucel (hydroxypropylcellulose) (HPC) 101 % of control | dose: 15.0 mg/kg/injection, schedule: Q01DX005 (ip), vehicle: Klucel (hydroxypropylcellulose) (HPC) 99 % of control | [18] 100 % of control

Cc1cc(C)nc(NS(=O)(=O)c2ccc(NC(=O)NCCCl)cc2)n1
inactive: [18] 106 % of control | dose: 60.0 mg/kg/injection, schedule: Q01DX005 (ip), vehicle: Klucel (hydroxypropylcellulose) (HPC) 107 % of control | dose: 120.0 mg/kg/injection, schedule: Q01DX005 (ip), vehicle: Klucel (hydroxypropylcellulose) (HPC) 100 % of control | dose: 240.0 mg/kg/injection, schedule: Q01DX005 (ip), vehicle: Klucel (hydroxypropylcellulose) (HPC) 114 % of control

N#CC1C(=O)NC(=O)C(C#N)C1c1ccncc1 (stereo unspecified)
inactive: [4] 103 % of control | [5] 104 % of control | dose: 200.0 mg/kg/injection, schedule: Q01DX009 (ip), vehicle: Klucel (hydroxypropylcellulose) (HPC) 103 % of control

COc1cc(C2c3cc(O)c(OC)cc3CC3C(=O)OCC32)ccc1O (stereo unspecified)
inactive: dose: 50.0 mg/kg/injection, schedule: Q01DX005 (ip), vehicle: Klucel (hydroxypropylcellulose) (HPC) 95 % of control | dose: 100.0 mg/kg/injection, schedule: Q01DX005 (ip), vehicle: Klucel (hydroxypropylcellulose) (HPC) 95 % of control | dose: 200.0 mg/kg/injection, schedule: Q01DX005 (ip), vehicle: Klucel (hydroxypropylcellulose) (HPC) 90 % of control

O=c1sc2ccccc2n1CCCl
inactive: [6] 112 % of control | [7] 110 % of control | [13] 114 % of control | [14] 103 % of control

CCN(CC)CCn1nc2n(c(=O)c1=O)CC(=O)N(C)c1ccc(Cl)cc1-2
inactive: [15] 105 % of control | [16] 105 % of control | [17] 99 % of control
